Among the data in EP0977036A1, “METHOD FOR ASSAYING AGALACTO-IgG AND ASSAY KITS, PO[…] LECTINS, AND DNAS ENCODING THE SAME” (SEIKAGAKU CORPORATION, priority 1996, dated 1998) are inhibition values, retold here.

Each structure is given as a SMILES string.

In the experiment the test system is PVL. In words: Influence of various monosaccharides on the agalacto-IgG assay system (PVL immobilized on plate, peroxidase-labeled anti-human IgG antibody). The note with it: 50 mM monosaccharide added to agalacto-IgG standard solution (2.5 µg/ml); value without monosaccharide defined as 100%. The experiment is classed as binding, Psathyrella velutina. Here is the method: PVL purified in Example 1 or commercially available PVL was diluted to 20 µg/ml in 0.1 M carbonate buffer containing 10% glycerol (pH 8.5 to 9), and 50 µl of this solution (1 µg/well) was added to each well of a Nunc immunoplate (trade name; Maxisorp, Nunc), and left at 4°C for 16 hours to uniformly coat each well.
This plate was washed twice with PBS(-), and PBS(-) solution containing 3% bovine serum albumin (BSA, sold by Seikagaku Corporation) was added as a blocking agent, and left stand at room temperature for two hours to coat the portions of the wells on which PVL was not immobilized.
Then, the plate was washed three times with a washing solution (PBS(-) containing 0.05% Tween 20), and 50 µl each of standard solutions at various concentrations (0.125 to 2 µg/ml) of the agalacto-IgG purified in Preparation Example 1 was added, and left stand at 37°C for 60 minutes for reaction. As the solvent of the agalacto-IgG standard solutions, PBS(-) containing 1% BSA and 0.05% Tween 20 (referred to as "reaction diluent" hereinafter) was used. […]
After the color development, 50 µl of 1 N HCl was added to the plate to terminate the reaction, and absorbance at a wavelength of 450 nm of the solution colored by the decomposition of TMB was measured (reference wavelength: 630 nm, A450/630) by Well Reader SK601 (sold by Seikagaku Corporation). […]

In the case of `CC(=O)N[C@H]1C(O)O[C@H](CO)[C@@H](O)[C@@H]1O` (stereo partly shown) [GlcNAc, N-acetylglucosamine], the inhibition result is “about 50%”.
